Experimental findings from patent US12305162B2, “Method for expanding propagation of Metarhizium rileyi MR006 and use thereof” (priority 2023, dated 2025) are described below.

What all share (test): Sub-lethal dose (LC25) of chlorantraniliprole on 2nd instar larvae
Holding throughout (format): in vivo

Assay [1] relates to Spodoptera frugiperda.
Assay [2] relates to Spodoptera litura.
The subject of assay [3] is Helicoverpa armigera.

Structures are written as SMILES.

In the case of `CNC(=O)c1cc(Cl)cc(C)c1NC(=O)c1cc(Br)nn1-c1ncccc1Cl` [chlorantraniliprole], the LC25 value came out at 0.006 µg/g in assay [1], 0.008 µg/g in assay [2] and 0.015 µg/g in assay [3].
